Results taken from patent US8778923B2, “GLP-1 receptor modulators” (Receptos, Inc., priority 2011, dated 2014).

Target: T1, GLP-1R (Homo sapiens, UniProt P43220)
T1 construct: host or cells: CRE-bla CHO-K1
Test: EC20 GLP-1(9-36) PAM cAMP assay: dose response of compound in the presence of fixed concentration of GLP-1(9-36)
Assay type: cell-based
Conditions: GLP-1R CRE-bla CHO-K1 cells, compound dose response in presence of fixed concentration of GLP-1(9-36)
How it was run: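 GLP-1R CRE-bla CHO-K1 cells in HBSS/10 mM Hepes/0.1% BSA pH 7.4 with IBMX got a 12-point compound dose response plus fixed EC20 GLP-1(9-36), 30 min at 37 °C. cAMP measured by HitHunter luminescence against a standard curve; EC50 and Emax by non-linear regression.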

T1 sequence (P43220 24-463): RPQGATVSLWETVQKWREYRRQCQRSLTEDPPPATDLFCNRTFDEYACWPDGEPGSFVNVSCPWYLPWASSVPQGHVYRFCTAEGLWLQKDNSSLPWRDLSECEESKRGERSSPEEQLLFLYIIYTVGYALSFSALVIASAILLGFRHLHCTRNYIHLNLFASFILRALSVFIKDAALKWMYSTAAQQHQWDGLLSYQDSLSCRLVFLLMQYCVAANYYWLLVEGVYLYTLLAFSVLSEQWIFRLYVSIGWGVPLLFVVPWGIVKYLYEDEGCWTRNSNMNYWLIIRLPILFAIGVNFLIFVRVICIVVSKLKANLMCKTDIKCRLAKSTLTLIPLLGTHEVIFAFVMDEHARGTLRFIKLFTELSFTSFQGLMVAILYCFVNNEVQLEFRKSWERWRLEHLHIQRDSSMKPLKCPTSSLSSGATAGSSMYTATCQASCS
T1 sequence (P01275 100-127 partner limits assumed): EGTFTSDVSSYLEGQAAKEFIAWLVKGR

| Compound | EC50 [nM] |
| --- | --- |
| CN(C)c1cccc(-c2cnc(-c3ccc(C[C@H](NC(=O)c4ccc(C(C)(C)C)cc4)C(=O)O)cc3)nc2)c1 [Compound 202] | 5000 to 10000 |
| CCN(CC)c1ccc(-c2nc(-c3ccc(C[C@H](NC(=O)c4ccc(C(C)(C)C)cc4)C(=O)O)cc3)no2)cc1 [Compound 48] | 5000 to 10000 |
| CC(C)(C)c1ccc(C(=O)N[C@@H](Cc2ccc(-c3noc(-c4ccc(N5CCCCC5)nc4)n3)cc2)C(=O)O)cc1 [Compound 32] | 5000 to 10000 |
| CC(C)(C)c1ccc(C(=O)N[C@@H](Cc2ccc(-c3ncc(-c4ccc(COc5ccccc5)cc4)cn3)cc2)C(=O)O)cc1 [Compound 231] | 5000 to 10000 |
| CC(=O)c1ccc(C(=O)N[C@@H](Cc2ccc(-c3ncc(-c4ccc(C(C)(C)C)cc4)cn3)cc2)C(=O)O)cc1 [Compound 176] | 5000 to 10000 |
| CCCCCCCOc1ccc(-n2cnc(-c3ccc(C[C@H](NC(=O)c4ccc(C(C)(C)C)cc4)C(=O)O)cc3)c2)cc1 [Compound 287, (S)-2-(4-(tert-butyl)benzamido)-3-(4-(1-(4-(heptyloxy)phenyl)-1H-imidazol-4-yl)phenyl)propanoic acid] | 5000 to 10000 |
| CC(C)(C)c1ccc(C(=O)N[C@@H](Cc2ccc(-c3ncc(-c4ccc(Cl)c(Cl)c4)cn3)cc2)C(=O)O)cc1 [Compound 213] | 2500 to 5000 |
| CCCCCCCOc1ccc(-c2cnc(-c3ccc(C[C@H](NC(=O)c4cccc(C#N)c4)C(=O)O)cc3)nc2)cc1 [Compound 105] | 5000 to 10000 |
| CCCCCCCOc1ccc(-c2nc(-c3ccc(C[C@H](NC(=O)c4ccc(C(C)(C)C)cc4)C(=O)NC(C)(C)C(=O)O)cc3)no2)cc1 [Compound 70] | 5000 to 10000 |
| Cc1ccc(-c2nc(-c3ccc(C[C@H](NC(=O)c4ccc(C(C)(C)C)cc4)C(=O)O)cc3)no2)cc1C [Compound 58] | 2500 to 5000 |
| CCCCCCCN1CCN(c2cnc(-c3ccc(C[C@H](NC(=O)c4ccc(C(C)(C)C)cc4)C(=O)O)cc3)nc2)CC1 [Compound 254] | 800 to 2500 |
| CC(C)(C)c1ccc(-c2cnc(-c3ccc(C[C@H](NC(=O)c4ccc(C(C)(C)C)s4)C(=O)O)cc3)nc2)cc1 [Compound 165] | 800 to 2500 |
| CC(C)S(=O)(=O)c1ccc(C(=O)N[C@@H](Cc2ccc(-c3ncc(-c4ccc(C(C)(C)C)cc4)cn3)cc2)C(=O)O)cc1 [Compound 181] | 800 to 2500 |
| CC(C)(C)c1ccc(C(=O)N[C@@H](Cc2ccc(-c3noc(-c4ccc(S(N)(=O)=O)cc4)n3)cc2)C(=O)O)cc1 [Compound 54] | 2500 to 5000 |
| CC(C)(C)c1ccc(C(=O)N[C@@H](Cc2ccc(-c3ncc(OCc4ccccc4)cn3)cc2)C(=O)O)cc1 [Compound 258] | 5000 to 10000 |
| CCCCCCCOc1ccc(-c2cnc(-c3ccc(C[C@H](NC(=O)c4ccc(C(N)=O)cc4)C(=O)O)cc3)nc2)cc1 [Compound 115] | 800 to 2500 |
| CCCCCCCOc1ccc(-c2cnc(-c3ccc(C[C@H](NC(=O)c4ccc(C(C)C)cc4)C(=O)N[C@@H](CC(C)C)C(=O)O)cc3)nc2)cc1 [Compound 308] | 800 to 2500 |

| Compound | EC50 [nM] |
| --- | --- |
| CCCCCCCOc1ccc(N2CCN(c3ccc(C[C@H](NC(=O)c4ccc(C(C)(C)C)s4)C(=O)O)cc3)C2=O)cc1 [Compound 262] | 2500 to 5000 |
| CCCCCCCOc1ccc(-c2cnc(-c3ccc(C[C@H](NC(=O)c4ccc(C(C)(C)C)s4)C(=O)N[C@H](Cc4cnc[nH]4)C(=O)O)cc3)nc2)cc1 [Compound 325] | 5000 to 10000 |
| Cc1cc(C)cc(-c2nc(-c3ccc(C[C@H](NC(=O)c4ccc(C(C)(C)C)cc4)C(=O)O)cc3)no2)c1 [Compound 57] | 2500 to 5000 |
| Cc1ccc(-c2ccc(-n3cc(-c4ccc(C[C@H](NC(=O)c5ccc(C(C)(C)C)cc5)C(=O)O)cc4)cn3)cc2)cc1 [Compound 288, (S)-2-(4-(tert-butyl)benzamido)-3-(4-(1-(4′-methyl-[1,1′-biphenyl]-4-yl)-1H-pyrazol-4-yl)phenyl)propanoic acid] | 2500 to 5000 |
| Cn1ccc2cc(-c3nc(-c4ccc(C[C@H](NC(=O)c5ccc(C(C)(C)C)cc5)C(=O)O)cc4)no3)ccc21 [Compound 50] | 2500 to 5000 |
| CCCCCCOC1=NCc2cc(-c3cnc(-c4ccc(C[C@H](NC(=O)c5ccc(C(C)(C)C)cc5)C(=O)O)cc4)nc3)ccc21 [Compound 256] | 5000 to 10000 |
| CC(C)(C)c1ccc(C(=O)N[C@@H](Cc2ccc(-c3noc(-c4ccc5[nH]ccc5c4)n3)cc2)C(=O)O)cc1 [Compound 64] | 800 to 2500 |
| CCCCCCCOc1ccc(-c2noc(-c3ccc(C[C@H](NC(=O)c4ccc(C(C)(C)C)cc4)C(=O)O)cc3)n2)cc1 [Compound 1, (S)-2-(4-(tert-butyl)benzamido)-3-(4-(3-(4-(heptyloxy)phenyl)-1,2,4-oxadiazol-5-yl)phenyl)propanoic acid] | 800 to 2500 |
| CCCCCCCOc1ccc(-c2cnc(-c3ccc(C[C@H](NC(=O)c4ccc(C(C)(C)C)s4)C(=O)N[C@H](CCC(=O)O)C(=O)O)cc3)nc2)cc1 [Compound 331] | 800 to 2500 |
| CCCCCCCOc1ccc(-c2cnc(-c3ccc(C[C@H](NC(=O)c4ccc(C(C)(C)C)cc4)C(=O)O)cc3)nn2)cc1 [Compound 274] | 800 to 2500 |
| CCCCCCCOc1ccc(-c2cnc(-c3ccc(C[C@H](NC(=O)c4ccc(OC)cc4)C(=O)O)cc3)nc2)cc1 [Compound 86] | 800 to 2500 |
| Cc1cccc(-c2ccc(-c3cnc(-c4ccc(C[C@H](NC(=O)c5ccc(C(C)(C)C)cc5)C(=O)O)cc4)nc3)cc2)c1 [Compound 230] | 800 to 2500 |
| CCc1ccc(C(=O)N[C@@H](Cc2ccc(-c3ncc(-c4ccc(C(C)(C)C)cc4)cn3)cc2)C(=O)O)cc1 [Compound 160] | 800 to 2500 |
| CCCCCCCOc1ccc(N2CCN(c3ccc(C[C@H](NC(=O)c4ccc(C(C)(C)C)cc4)C(=O)O)cc3)CC2=O)cc1 [Compound 261] | 2500 to 5000 |
| CCCCCCOc1ccc(-c2cnc(-c3ccc(C[C@H](NC(=O)c4ccc(C(C)(C)C)s4)C(=O)O)cc3)nc2)cc1 [Compound 239] | 800 to 2500 |
| CCCCCCCCCCCCCCOc1ccc(-c2cnc(-c3ccc(C[C@H](NC(=O)c4ccc(C(C)(C)C)s4)C(=O)O)cc3)nc2)cc1 [Compound 251] | 5000 to 10000 |
| CCOc1ccc(-c2cnc(-c3ccc(C[C@H](NC(=O)c4ccc(C(C)(C)C)cc4)C(=O)O)cc3)nc2)cc1 [Compound 221] | 2500 to 5000 |

Other lines, results leading:

| EC50 [nM] | Compound |
| --- | --- |
| 800 to 2500 | COc1cc(-c2nc(-c3ccc(C[C@H](NC(=O)c4ccc(C(C)(C)C)cc4)C(=O)O)cc3)no2)cc(OC)c1OC [Compound 39] |
| 800 to 2500 | CCCCCCCOc1ccc(-c2cnc(-c3ccc(C[C@H](NC(=O)c4ccc(CC(C)(C)C)cc4)C(=O)O)cc3)nc2)cc1 [Compound 112] |
| 800 to 2500 | CCCCCCCOc1ccc(-c2cnc(-c3ccc(C[C@H](NC(=O)c4cc5c(s4)CCCC5)C(=O)O)cc3)nc2)cc1 [Compound 149] |
| 800 to 2500 | CC(C)c1ccc(-c2cnc(-c3ccc(C[C@H](NC(=O)c4ccc(C(C)(C)C)s4)C(=O)O)cc3)nc2)cc1 [Compound 242] |
| 800 to 2500 | CCCCCCCOc1ccc(-c2cnc(-c3ccc(C[C@H](NC(=O)c4nnc(C(C)(C)C)s4)C(=O)O)cc3)nc2)cc1 [Compound 141] |
| 800 to 2500 | Cc1cccc(-c2ccc(-c3nc(-c4ccc(C[C@H](NC(=O)c5ccc(C(C)(C)C)cc5)C(=O)O)cc4)no3)cc2)c1 [Compound 13] |
| 800 to 2500 | CCCCCCCOc1ccc(-c2nc(-c3ccc(CC[C@H](NC(=O)c4ccc(C(C)(C)C)cc4)C(=O)O)cc3)no2)cc1 [Compound 73] |
| 800 to 2500 | CCCCCCCOc1ccc(-c2cnc(-c3ccc(C[C@H](NC(=O)c4ccc(C(C)(C)C)s4)C(=O)N[C@H](CC(=O)O)Cc4ccccc4)cc3)nc2)cc1 [Compound 343] |
| 800 to 2500 | CCCCCCOc1ccc(-c2cnc(-c3ccc(C[C@H](NC(=O)c4ccc(C(C)(C)C)s4)C(=O)NCC4(C(=O)O)CCC4)cc3)nc2)cc1 [Compound 342] |
| 800 to 2500 | CCCCCCCOc1ccc(-c2cnc(-c3ccc(C[C@H](NC(=O)c4ccc(C(C)(C)C)cc4)C(=O)NCCCC(=O)O)cc3)nc2)cc1 [Compound 301] |
| 800 to 2500 | CC(C)(C)c1ccc(-c2cnc(-c3ccc(C[C@H](NC(=O)c4ccc(C(C)(C)C)s4)C(=O)N[C@H](CC(=O)O)C(=O)O)cc3)nc2)cc1 [Compound 355] |
| 800 to 2500 | CCCCCCCOc1ccc(-c2cnc(-c3ccc(C[C@H](NC(=O)c4ccc(C(C)C)cc4)C(=O)N[C@H](CC(C)C)C(=O)O)cc3)nc2)cc1 [Compound 313] |
| 800 to 2500 | CC(C)(C)c1ccc(-c2cnc(-c3ccc(C[C@H](NC(=O)c4ccc(C(C)(C)C)s4)C(=O)N[C@@H](CCC(=O)O)C(=O)O)cc3)nc2)cc1 [Compound 363] |
| < 800 | CCCCCCCOc1ccc(-c2cnc(-c3ccc(C[C@H](NC(=O)c4ccc(C(C)(C)C)s4)C(=O)N[C@@H](C)C(=O)O)cc3)nc2)cc1 [Compound 333] |
| < 800 | CCCCCCCOc1ccc(-c2cnc(-c3ccc(C[C@H](NC(=O)c4ccc(C(C)(C)C)s4)C(=O)NCCC(=O)O)cc3)nc2)cc1 [Compound 336] |
| < 800 | CCCCCCCOc1ccc(-c2cnc(-c3ccc(C[C@H](NC(=O)c4ncc(C(C)(C)C)s4)C(=O)NCC(=O)O)cc3)nc2)cc1 [Compound 371] |
| < 800 | CCCCCCCOc1ccc(-c2cnc(-c3ccc(C[C@H](NC(=O)c4ccc(C(C)(C)C)cc4)C(=O)N[C@@H](CC(N)=O)C(=O)O)cc3)nc2)cc1 [Compound 300] |
| < 800 | CCCCCCCOc1ccc(-c2cnc(-c3ccc(C[C@H](NC(=O)c4ccc(C(C)(C)C)s4)C(=O)N[C@@H](CC(N)=O)C(=O)O)cc3)nc2)cc1 [Compound 321] |
| < 800 | CCCCCCCOc1ccc(-c2cnc(-c3ccc(C[C@H](NC(=O)c4ccc(C(C)(C)C)s4)C(=O)N[C@H](C)C(=O)O)cc3)nc2)cc1 [Compound 327] |
| < 800 | CC(C)(C)c1ccc(-c2cnc(-c3ccc(C[C@H](NC(=O)c4ccc(C(C)(C)C)s4)C(=O)NCC(=O)O)cc3)nc2)cc1 [Compound 351] |
| < 800 | CCCCCCCOc1ccc(-c2cnc(-c3ccc(C[C@@H](NC(=O)c4ccc(C(C)(C)C)s4)C(=O)N[C@H](C)C(=O)O)cc3)nc2)cc1 [Compound 375] |
